Measured values reported in PMC3673989, “Effect of Single Amino Acid Substitution Observed in Cancer on Pim-1 Kinase Thermodynamic Stability and Structure” (PLoS ONE, 2013).

What was measured:
Pim-1 E124Q = target: T1, Pim-1 E124Q (Homo sapiens, UniProt P11309, E124Q); test: Inhibitor binding by temperature shift assay (SYPRO Orange); settings: Pim-1 E124Q 2 µM, compound 10 µM
T1 construct: hexahistidine tag (TEV-cleavable) (cleaved yes); made in house; host or cells: E. coli BL21(DE3)
Procedure: (§1) Thermal melting experiments were carried out using an Mx3005p Real Time PCR machine (Stratagene). Proteins were buffered in 10 mM HEPES pH 7.5, 500 mM NaCl and assayed in a 96-well plate at a final concentration of 2 µM in 20 µl volume. Compounds were added at a final concentration of 10 µM. SYPRO Orange (Molecular Probes) was added as a fluorescence probe at a dilution of 1∶1000. […] Data was analysed as previously described.

Pim-1 E135K = target: T2, Pim-1 E135K (Homo sapiens, UniProt P11309, E135K); test: as above; settings: Pim-1 E135K 2 µM, compound 10 µM
T2 construct: hexahistidine tag (TEV-cleavable) (cleaved yes); made in house; host or cells: E. coli BL21(DE3)
Procedure: as §1

Pim-1 E142D = target: T3, Pim-1 E142D (Homo sapiens, UniProt P11309, E142D); test: as above; settings: Pim-1 E142D 2 µM, compound 10 µM
T3 construct: hexahistidine tag (TEV-cleavable) (cleaved yes); made in house; host or cells: E. coli BL21(DE3)
Procedure: as §1

Pim-1 Y53H [1] = target: T4, Pim-1 Y53H (Homo sapiens, UniProt P11309, Y53H); test: as above; settings: Pim-1 Y53H 2 µM, compound 10 µM
T4 construct: hexahistidine tag (TEV-cleavable) (cleaved yes); made in house; host or cells: E. coli BL21(DE3)
Procedure: as §1

Pim-1 wild type [2] = target: T5, Pim-1 wild type (Homo sapiens, UniProt P11309); test: as above; settings: Pim-1 wild type 2 µM, compound 10 µM
T5 construct: hexahistidine tag (TEV-cleavable) (cleaved yes); made in house; host or cells: E. coli BL21(DE3)
Procedure: as §1

Pim-1 Y53H [3] = target: T4, Pim-1 Y53H; test: Caliper mobility shift kinase assay; format: biochemical; settings: Y53H relative to Pim-1 wild type
Procedure: (§2) Phosphorylation reaction was monitored using a coupled-enzyme assay in which ADP production is coupled to NADH oxidation by pyruvate kinase and lactate dehydrogenase. […] In the Caliper mobility shift assays kinase reactions were analyzed by microfluidic capillary electrophoresis. The final assay buffer was 50 mM HEPES, pH 7.5, 1 mM DTT, 0.02% Tween 20, 0.02% BSA, 10 mM beta-glycerophosphate, 0.01 mM Na3VO4, 0.6% DMSO, 8 mM MgCl2, 2 µM peptide and 0.2 nM kinase. The reactions were started by addition of substrate mix consisting of ATP and peptide substrate to kinase and inhibitor solution. ATP concentrations were adjusted to the Kmvalues of the specific Pim enzyme. After incubation for 60 min at 30°C reactions were terminated with 100 mM HEPES pH 7.5, 5% DMSO, 0.1% coating reagent (Caliper Lifescience) 10 mM EDTA pH 8.0, 0.015% Brij35. Levels of substrate and product were quantified by measuring the laser-induced fluorescence intensities of fluorescein labels of the peptide.

Pim-1 variants = test: Caliper mobility shift kinase assay; format: biochemical, human; settings: exception K00487 and K00207a for Y53H
Procedure: as §2

Pim-1 wild type [4] = target: T5, Pim-1 wild type; format: biochemical; settings: ATP as substrate, wild type protein
Procedure: as §2

T3 sequence (P11309 whole entry E142D): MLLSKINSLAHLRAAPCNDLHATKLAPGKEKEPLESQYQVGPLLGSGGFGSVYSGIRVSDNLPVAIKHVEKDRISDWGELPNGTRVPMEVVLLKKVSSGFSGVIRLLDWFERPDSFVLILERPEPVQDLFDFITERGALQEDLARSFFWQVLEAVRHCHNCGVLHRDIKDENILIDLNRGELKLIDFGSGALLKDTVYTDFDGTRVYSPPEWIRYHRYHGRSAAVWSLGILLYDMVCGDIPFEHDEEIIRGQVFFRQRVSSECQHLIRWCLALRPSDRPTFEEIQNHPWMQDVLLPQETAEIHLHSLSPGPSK
T5 sequence (P11309 whole entry): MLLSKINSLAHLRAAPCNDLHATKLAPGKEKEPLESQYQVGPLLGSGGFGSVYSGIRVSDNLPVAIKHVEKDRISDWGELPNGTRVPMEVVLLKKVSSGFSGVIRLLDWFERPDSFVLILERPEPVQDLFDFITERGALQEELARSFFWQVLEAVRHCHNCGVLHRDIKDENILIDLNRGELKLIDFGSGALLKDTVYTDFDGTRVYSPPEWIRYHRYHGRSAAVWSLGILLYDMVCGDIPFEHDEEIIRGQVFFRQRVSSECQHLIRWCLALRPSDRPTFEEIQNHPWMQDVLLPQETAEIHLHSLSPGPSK
T2 sequence (P11309 whole entry E135K): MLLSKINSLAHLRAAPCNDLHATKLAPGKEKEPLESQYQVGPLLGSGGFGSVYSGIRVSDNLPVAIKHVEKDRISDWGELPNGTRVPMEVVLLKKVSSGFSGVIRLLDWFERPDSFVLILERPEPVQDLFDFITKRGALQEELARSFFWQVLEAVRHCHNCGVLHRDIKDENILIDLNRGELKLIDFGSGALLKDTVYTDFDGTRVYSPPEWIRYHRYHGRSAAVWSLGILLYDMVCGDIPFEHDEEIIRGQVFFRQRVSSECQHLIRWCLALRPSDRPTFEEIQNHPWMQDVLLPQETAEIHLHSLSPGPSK
T1 sequence (P11309 whole entry E124Q): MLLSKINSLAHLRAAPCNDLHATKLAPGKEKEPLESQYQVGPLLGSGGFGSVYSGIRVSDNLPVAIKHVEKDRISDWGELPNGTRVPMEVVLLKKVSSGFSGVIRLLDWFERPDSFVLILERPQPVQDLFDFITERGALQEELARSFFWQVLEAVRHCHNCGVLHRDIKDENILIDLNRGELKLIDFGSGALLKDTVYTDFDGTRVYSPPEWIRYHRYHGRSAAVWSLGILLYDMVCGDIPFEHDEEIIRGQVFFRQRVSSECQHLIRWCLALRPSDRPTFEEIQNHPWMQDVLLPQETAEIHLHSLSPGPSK
T4 sequence (P11309 whole entry Y53H): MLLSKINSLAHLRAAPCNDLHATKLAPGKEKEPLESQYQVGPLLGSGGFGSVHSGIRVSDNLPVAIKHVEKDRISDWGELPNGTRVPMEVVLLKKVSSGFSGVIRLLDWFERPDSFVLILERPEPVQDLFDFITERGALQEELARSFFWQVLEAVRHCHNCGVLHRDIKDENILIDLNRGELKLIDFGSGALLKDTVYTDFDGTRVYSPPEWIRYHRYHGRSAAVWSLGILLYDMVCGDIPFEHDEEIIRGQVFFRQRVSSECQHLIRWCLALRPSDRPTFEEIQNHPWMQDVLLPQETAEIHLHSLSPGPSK

Compound | ΔTm (Pim-1 E124Q) [K] | ΔTm (Pim-1 E135K) [K] | ΔTm (Pim-1 E142D) [K] | ΔTm (Pim-1 Y53H [1]) [K] | ΔTm (Pim-1 wild type [2]) [K] | fold increase of IC50 versus wild type (Pim-1 Y53H [3]) [fold] | IC50 for Pim-1 variants compared with wild type (Pim-1 variants) | Km (Pim-1 wild type [4]) [µM]
Cn1c2c(c3ccc(Cl)c(Cl)c31)C(C#N)C1(CCOCC1)NC2=O (centres unmarked) [K01741a] | 3.3 | 5.2 | 3.3 | 3.3 | 5.1 | – | – | –
CCC(CO)Nc1ccc2ncc(-c3cccc(OC(F)(F)F)c3)n2n1 (centres unmarked) [K00487] | 7.6 | 7.5 | 8.1 | 7.0 | 7.7 | 1.8 | closely similar | –
Nc1ncnc2c1ncn2[C@@H]1O[C@H](COP(=O)(O)OP(=O)(O)OP(=O)(O)O)[C@@H](O)[C@H]1O [ATP] | – | – | – | – | – | – | – | 205
CC(C)[C@@H](CO)Nc1ccc2ncc(-c3cccc(C(F)(F)F)c3)n2n1 [K00516] | 8.2 | 9.0 | 7.7 | 6.9 | 8.2 | – | – | –
CC(C)[C@@H](CO)Nc1ccc2ncc(-c3cccc(Cl)c3)n2n1 [K00514] | 6.1 | 7.5 | 6.2 | 5.6 | 6.1 | – | – | –
CC(=O)c1cccc(-c2cnc3ccc(N[C@H](CO)C(C)C)nn23)c1 [K00518] | 4.3 | 6.4 | 5.3 | 4.6 | 5.6 | – | – | –
Clc1ccc(-c2cnc3ccc(NC4CCOCC4)nn23)cc1 [K00499] | 5.6 | 6.0 | 6.6 | 5.9 | 5.5 | – | – | –
CC(C)[C@@H](CO)Nc1ccc2ncc(-c3cccc(OC(F)(F)F)c3)n2n1 [K00512] | 8.5 | 8.9 | 8.8 | 8.1 | 8.4 | – | – | –
COCCNc1ccc2ncc(-c3cccc(Cl)c3)n2n1 [K00478] | 4.9 | 5.9 | 4.8 | 4.5 | 6.0 | – | – | –
CCN1CCC2(CC1)NC(=O)c1c(c3ccc(Cl)c(Cl)c3n1C)C2C#N (centres unmarked) [K01786a] | 7.2 | 8.2 | 8.6 | 8.2 | 8.4 | – | – | –
FC(F)(F)Oc1cccc(-c2cnc3ccc(NCC4CC4)nn23)c1 [K00520] | 5.0 | 6.5 | 6.4 | 5.5 | 6.8 | – | – | –
